# Key:
# Type in all cases: in vivo, human
# [1] = tested on: post trauma pain in the pinned ankle; assay: Example 34: ankle pain after surgical insertion of metal screws; conditions: for extent of pain relief: 6% in WEP 244, topical
# Protocol: A subject with above described post trauma pain at the end of each day experienced painful discomfort in the pinned ankle. […] Complete relief lasted nearly 24 hours. At the end of the next day, the ankle was as painful as the days before. Subject applied 6% C20 in same liquid vehicle.
# psoriatic arthritis = assay: Example 35: psoriatic arthritis, topical C20 and C26
# Protocol: A subject with a 40 year history of psoriasis and several years of psoriatic arthritis topically applied the formulations cited in Example 34 above. Formulation of C20 was applied to both hands. […] The formulation of C26 was applied to the left ankle and foot, pain of which was relieved in about 5 minutes and lasted for 4-5 hours.
# [2] = tested on: rheumatoid arthritis; rheumatoid nodule; assay: Example 13: rheumatoid arthritis fingers, nodule injection and glove application; conditions: nodule injected with 0.15 ml of 2% aqueous solution/suspension once weekly, four injections; over 9 weeks
# Protocol: A subject noted changes in their fingers that appeared to be compatible with the diagnosis of early rheumatoid arthritis in autumn of the year. At about one month later there appeared over the terminal interphalangeal joint of the left third finger a raised inflammatory nodule compatible with the diagnosis of a rheumatoid nodule. The nodule was injected with 0.15 ml of a 2% aqueous solution/suspension of creatine monohydrate once weekly for four injections. […] Thereafter, for a period of one month, the subject wore a nitrile glove containing a few drops N-acetyl ethyl creatine 3% dissolved in water: propylene glycol 8:2 for about an hour twice daily on the left hand only.
# [3] = tested on: arthritis of cervical and thoracic spine; assay: Example 14: subcutaneous injection over sites of spinal pain
# Protocol: A physician subject with continually worsening osteoarthritis of multiple joints for 15-16 years, prepared a sterile aqueous injectable solution/suspension of 2% creatine monohydrate. Under their direction, medical assistants were instructed on techniques to give subcutaneous injections of the 2% aqueous solution/suspension with either a 1 ml syringe with 27 gauge 13 mm needle or with a 1 ml insulin syringe with 30 gauge 8 mm needle.
# Five intervertebral painful sites of arthritis of cervical and thoracic spine, identified by finger pressure, received a single injection of 0.3 ml of the solution.
# [4] = tested on: psoriatic arthritis, painful, swollen and erythematous right ankle; assay: Example 15: subcutaneous injection over ankle with psoriatic arthritis; conditions: 0.5 ml of 2% subcutaneous
# Protocol: A diabetic subject with psoriasis for over 4 decades, and worsening psoriatic arthritis for about 10 years, presented with an acutely painful, swollen and erythematous right ankle. Using a 1 ml insulin syringe with short needle they injected 0.5 ml of the 2% creatine monohydrate as described above into a subcutaneous site of the anterior ankle.
# [5] = tested on: arthritic pain in the right hip joint; assay: Example 16: subcutaneous injection for hip pain
# Protocol: A subject who for several weeks was experiencing disabling arthritic pain in the right hip joint, was given two subcutaneous injections of a sterile 2% aqueous solution/suspension of creatine monohydrate over the point of pain, 0.5 ml given first, and 0.6 ml given five days later. […] A third subcutaneous injection of 0.7 ml of the 2% creatine monohydrate solution/suspension was given over the point of joint pain elicited by finger pressure. […] Hip remained pain free for another 2 weeks.
# dental pain = assay: Example 17: post dental surgery pain; conditions: about 1 gram powder in mouth
# Protocol: A subject had three teeth, #23, 24 and 25 extracted at 12 noon, then had two implants posted immediately after. At about 6 pm, subject started to feel pain in the gum area after lidocaine anesthesia wore off. […] The subject took about 1 gram creatine monohydrate powder into mouth. The powder, as it dissolved in saliva, was rinsed for approximately 5 minutes, then swallowed. The dental pain stopped in about 20 minutes, and relief lasted for 8 hours.
# [6] = tested on: Rheumatoid Arthritis (RA); assay: Example 26: rheumatoid arthritis, intralesional injection and topical; conditions: 0.15 ml of 2% aqueous solution/suspension once weekly, 4 injections; over 9 weeks
# Protocol: A subject, described in an earlier Example, after approximately 4 months of worsening symptoms, and finger joint enlargements on both hands, realized that they were rapidly developing RA, especially when a rheumatoid nodule enlarged over the terminal joint of the left […] finger to a size of approximately 1 cm in diameter, and about 3 mm thick. The nodule was initially injected with 0.15 ml of a 2% aqueous solution/suspension of creatine monohydrate once weekly for 4 injections. […] Thereafter the subject wore a nitrile glove containing a few drops of C15 3-9% dissolved in WP 82 for an hour twice daily on the left hand only. After another 2 months C15 9% in WP 82 was topically applied by means of their wearing nitrile gloves containing the C15 solution for 1 hour twice daily. […] It is intended for the subject to continue topical treatment in one form or another for an indefinite time forward.
# pain in the left ankle = assay: Example 8: post fracture acute ankle pain; conditions: before the test
# Text: A subject with a history of fractured left ankle seven years earlier, who had worn a plaster cast for several weeks at that time, related that for the past three months disturbing and increasing pain in the left ankle, which was occurring daily and was disturbing their sleep every night. […] They were provided 8 ounces of the above Formulation A (Example 4), to be applied to the painful ankle as needed.
# [7] = tested on: painful swollen right knee; assay: Example 9: painful swelling of knee joint, three topical formulations; conditions: before the test
# Protocol: A subject with relentless painful swollen right knee for 3-4 years, not relieved by oral ibuprofen, was tested and rated analgesic efficacy of the three following formulations applied topically to the knee. [table] [table] [table]
smiles,measurement,setting,value
"CCOC(=O)CN(C)C(N)=NC(=O)c1ccccc1 [Compound C20, N-benzoyl ethyl creatinate]",extent of pain relief,[1],Some relief did occur but not complete as with C26
same,extent of pain relief,psoriatic arthritis; 6% in WEP 244 applied to both hands,completely relieved
same,duration of relief,psoriatic arthritis; both hands,4 h
same,time to pain relief,psoriatic arthritis; both hands,about 2 minutes
"CCOC(=O)CN(C)C(N)=NC(=O)c1ccccc1OC(C)=O [Compound C26, N-2-acetoxybenzoyl ethyl creatinate]",duration of complete relief,[1]; 6% in WEP 244,~24 h
same,time to pain relief,[1]; 6% in WEP 244,≤ 1 min
same,extent of pain relief,[1],completely relieved the pain
same,extent of pain relief,psoriatic arthritis; 6% in WEP 244 applied to left ankle and foot,relieved
same,duration of relief,psoriatic arthritis; left ankle and foot,4 to 5 h
same,time to pain relief,psoriatic arthritis; left ankle and foot,about 5 minutes
CN(CC(=O)O)C(=N)N.O [creatine monohydrate],resolution of rheumatoid nodule,[2],the nodule resolved almost completely
same,extent of pain relief,[3]; single subcutaneous injection of 0.3 ml of 2% aqueous solution/suspension at five intervertebral sites,All sites/areas became pain free
same,time to pain free after injection,[3]; subcutaneous 0.3 ml of 2% per site,2 to 3 h
same,duration pain free,"[3]; subcutaneous 0.3 ml of 2% per site, no further therapy",7 weeks
same,edema and erythema of the ankle,[4],completely resolved within a week
same,state of ankle four weeks after the injection,[4],"remained pain free, was of normal appearance, and was completely functional as a normal ankle"
same,time to resolution of ankle pain,[4],about 30 minutes
same,extent of pain relief,"[4]; anterior ankle, person",Ankle pain completely resolved
same,duration of complete relief of pain,[5]; after the first two injections,2 weeks
same,duration pain free,[5]; after third injection,2 weeks
same,time to complete relief of pain,"[5]; third injection, 0.7 ml",3 to 4 h
same,extent of pain relief,"[5]; third subcutaneous injection, 0.7 ml of 2%",Complete relieve of pain
same,extent of pain relief,"[5]; two subcutaneous injections of 2% solution/suspension, 0.5 ml and 0.6 ml five days later, person",Complete relief of pain
same,duration of relief,dental pain,8 h
same,time until dental pain stopped,"dental pain; rinsed approximately 5 minutes, swallowed, person",about 20 minutes
same,resolution of rheumatoid nodule,[6],the nodule resolved almost completely
CC(C)Cc1ccc(C(C)C(=O)O)cc1 (stereo not shown) [ibuprofen],pain relief by oral comparator,pain in the left ankle,"did relieve the pain for several hours, but the pain always recurred"
same,pain relief by oral comparator,[7],not relieved

# From patent US20230218555A1, “CREATINE, ITS DERIVATIVES, COMPOSITIONS AND METHODS OF USE THEREOF” (priority 2021, published 2023)
